Laboratory results: ChEMBL document CHEMBL1135840, “Design, synthesis and pharmacological evaluation of novel pyrazolo[3,4-b]thieno[2,3-d]pyridine acid derivatives: a new class of anti-inflammatory and anti-platelet agents” (Bioorg Med Chem Lett, 2002)

Key:
Oryctolagus cuniculus [1] = organism: Oryctolagus cuniculus; experiment: Compound was tested for platelet aggregation in citreated rabbit platelet-rich plasma induced by arachidonic acid at 200 uM; type: functional
Rattus norvegicus [2] = experiment: Antiinflammatory effect at a dose of 100 umol/kg administered orally in the carrageenan-induced rat pleurisy assay (10e6 Cells/cavity); type: functional
Cavia porcellus = organism: Cavia porcellus; experiment: In vitro effect of compound on leukotriene-D4 LTD4 (100 nM) induced contraction of isolated guinea pig tracheal strip; type: functional; details: Trachea
Rattus norvegicus [3] = experiment: Percent inhibition of cellular migration by the compound at a dose of 100 umol/kg was evaluated; type: functional
Rattus norvegicus [4] = experiment: Exudate volume was determined after administration at a dose of 100 umol/kg; type: functional
Oryctolagus cuniculus [5] = organism: Oryctolagus cuniculus; experiment: In vitro of platelet aggregation of citreated rabbit platelet-rich plasma, induced by collagen at 5 µg/mL; value expressed as slope
Oryctolagus cuniculus [6] = organism: Oryctolagus cuniculus; experiment: In vitro of platelet aggregation of citreated rabbit platelet-rich plasma, induced by arachidonic acid at 200 uM; type: functional
Rattus norvegicus [7] = experiment: Percent inhibition of cellular migration by the compound at a dose of 100 umol/kg was evaluated in the carrageenan-induced rat pleurisy assay; type: functional
Rattus norvegicus [8] = experiment: Exudate volume was determined after administration at a dose of 100 umol/kg in the carrageenan-induced rat pleurisy assay; type: functional

SMILES	IC50 (Oryctolagus cuniculus [1]) [nM]	Cell number (Rattus norvegicus [2])	IC50 (Cavia porcellus) [µM]	inhibition in vivo at 100 µmol/kg (Rattus norvegicus [3]) [%]	Exudate volume (Rattus norvegicus [4]) [mL]	Aggregation (Oryctolagus cuniculus [5])	Aggregation (Oryctolagus cuniculus [6]) [%]	inhibition in vivo at 100 µmol/kg (Rattus norvegicus [7]) [%]	Exudate volume (Rattus norvegicus [8]) [mL]
Cc1nn(-c2ccccc2)c2ncc3c(OC(=O)CCCC(=O)O)c(-c4ccc(Cl)cc4)sc3c12	140	19600000	43.7	36.2	3.05	0	0		
COc1ccc2c(c1)c(CC(=O)O)c(C)n2C(=O)c1ccc(Cl)cc1 [INDOMETHACIN]		23.3				0.4	0	24.1	3.21
Cc1nn(-c2ccccc2)c2ncc3c(OCCCCC(=O)O)c(-c4ccc(Cl)cc4)sc3c12		21.5		30	3.22	7.5	58.9		
Cc1nn(-c2ccccc2)c2ncc3c(OCc4ccc(CC(=O)O)cc4)c(-c4ccc(Cl)cc4)sc3c12		21900000		28.7	3.1	4.7	60.5		
Cc1nn(-c2ccccc2)c2ncc3c(OCCCCCC(=O)O)c(-c4ccc(Cl)cc4)sc3c12		17800000		42	3.16	5.8	56.6		
